This note sets out measurements from patent US11773085B2 (Foghorn Therapeutics Inc., priority 2018, dated 2023).

One assay addresses BRD9 bromodomain (Homo sapiens (Human), UniProt Q9H8M2). Description: BRD9 bromodomain TR-FRET competition binding assay. The note with it: 3 nM Flag-BRD9, 3.75 nM biotinylated ligand, 90 minutes at room temperature. The protocol: Cleaved His tag was removed by purification.
A mixture of biotinylated-ligand and SureLight™ Allophycocyanin-Streptavidin (APC-SA, PerkinElmer AD0201) in 50 mM HEPES (pH 7.4), 50 mM NaCl, 1 mM TCEP (pH 7), 0.01% (v/v) Tween-20, 0.01% (w/v) bovine serum albumin was added to a white 384-well PerkinElmer Proxiplate Plus plate. DMSO or 3-fold serially diluted compounds were then added to the Proxiplate followed by addition of Flag-BRD9. After a 10 minute incubation at room temperature, Eu-W1024 anti-FLAG (PerkinElmer, AD0273) was added.

The target of assay [1] is Nanoluciferase-BRD9 fusion protein (3×FLAG-NLuc-BRD9) (Homo sapiens (Human), UniProt Q9H8M2). Description: SYO1 BRD9 NanoLuc degradation assay. The format is cell-based. The following applies: SYO-1 cells expressing 3×FLAG-NLuc-BRD9, 6 hours, 1 μM top dose; read-out: SYO1 BRD9-NanoLuc degradation IC50. As for the experimental part:
A stable SYO-1 cell line expressing 3×FLAG-NLuc-BRD9 was generated. On day 0 cells were seeded in 30 μL media into each well of 384-well cell culture plates. The seeding density was 8000 cells/well. […] Subsequently plates were incubated for 6 hours in a standard tissue culture incubator and equilibrated at room temperature for 15 minutes. Nanoluciferase activity was measured by adding 15 μL of freshly prepared Nano-Glo Luciferase Assay Reagent (Promega N1130), shaking the plates for 10 minutes and reading the bioluminescence using an EnVision reader.
The Inhibition % was calculated using the following formula: % Inhibition=100×(LumHC−LumSample)/(LumHC−LumLC). DMSO treated cells are employed as High Control (HC) and 1 μM of a known BRD9 degrader standard treated cells are employed as Low Control (LC).

Structures are written as SMILES. pIC50: −log10 of the molar value.

`COc1cc(-c2cn(C)c(=O)c3cnccc23)cc(OC)c1CN(C)CC(=O)NCCCCCCCCCC(=O)N[C@H](C(=O)N1C[C@H](O)C[C@H]1C(=O)NCc1ccc(-c2scnc2C)cc1)C(C)(C)C` (stereo in doubt) [Compound D18, (2S,4R)-1-[(2S)-2-[10-[2-([[2,6-dimethoxy-4-(2-methyl-1-oxo-2,7-naphthyridin-4-yl)phenyl]methyl](methyl)amino)acetamido]decanamido]-3,3-dimethylbutanoyl]-4-hydroxy-N-[[4-(4-methyl-1,3-thiazol-5-yl)phenyl]methyl]pyrrolidine-2-carboxamide] showed a pIC50 at BRD9 bromodomain of over 8.00. For the same molecule, the DC50 in assay [1] is under 10 nM.
Consider `CNCc1c(OC)cc(-c2cn(C)c(=O)c3cnccc23)cc1OC` [Compound B53, 4-[3,5-dimethoxy-4-[(methylamino)methyl]phenyl]-2-methyl-1,2-dihydro-2,7-naphthyridin-1-one], for which the negative-log IC50 (pIC50) on BRD9 bromodomain was 7.00 to 8.00.
`COc1cc(-c2cn(C)c(=O)c3cnccc23)cc(SC)c1CN(C)C` [Compound B54, 4-[4-[(dimethylamino)methyl]-3-methoxy-5-(methylsulfanyl)phenyl]-2-methyl-1,2-dihydro-2,7-naphthyridin-1-one]: the negative-log IC50 (pIC50) on BRD9 bromodomain was over 8.00.
The molecule `CNC(=O)[C@@H]1CCN1Cc1c(OC)cc(-c2cn(C)c(=O)c3cnccc23)cc1OC` [Compound B56, (2S)-1-[[2,6-dimethoxy-4-(2-methyl-1-oxo-2,7-naphthyridin-4-yl)phenyl]methyl]-N-methylazetidine-2-carboxamide] gave a negative logarithm of the IC50 (pIC50) at BRD9 bromodomain of 7.00 to 8.00.
On the same count and under the same terms, the result for `COc1cc(-c2cc(NC(=O)N(C)C)c3nnc(C)n3c2)cc(OC)c1CN(C)C` [Compound B57, 1-(6-[4-[(dimethylamino)methyl]-3,5-dimethoxyphenyl]-3-methyl-[1,2,4]triazolo[4,3-a]pyridin-8-yl)-3,3-dimethylurea] reads under 6.00; that for `COc1cc(-c2cc(NC(=O)N(C)C)c3nncn3c2)cc(OC)c1CN(C)C` [Compound B58, 1-(6-[4-[(dimethylamino)methyl]-3,5-dimethoxyphenyl]-[1,2,4]triazolo[4,3-a]pyridin-8-yl)-3,3-dimethylurea], under 6.00; that for `CNC(=O)c1ccc2c(-c3cc(OC)c(CN(C)C)c(OC)c3)cn(C)c(=O)c2c1` [Compound B59, 4-[4-[(dimethylamino)methyl]-3,5-dimethoxyphenyl]-N,2-dimethyl-1-oxoisoquinoline-7-carboxamide], 7.00 to 8.00.
Still for that read-out and setting: the result for `COc1cc(-c2cc(NC(C)=O)c3nnc(C)n3c2)cc(OC)c1CN(C)C` [Compound B60, N-(6-[4-[(dimethylamino)methyl]-3,5-dimethoxyphenyl]-3-methyl-[1,2,4]triazolo[4,3-a]pyridin-8-yl)acetamide] reads 7.00 to 8.00.
At BRD9 bromodomain, `COc1cc(-c2nn(C)c(=O)c3cnccc23)cc(OC)c1CN(C)C` [Compound B62, 1-(4-((dimethylamino)methyl)-3,5-dimethoxyphenyl)-3-methylpyrido[3,4-d]pyridazin-4(3H)-one 2,2,2-trifluoroacetate] gave a pIC50 of 7.00 to 8.00.
On the same count and under the same terms, the result for `CNC(=O)c1ccc2c(=O)n(C)cc(-c3cc(OC)c(CN(C)C)c(OC)c3)c2c1` [Compound B63, 4-(4-((dimethylamino)methyl)-3,5-dimethoxyphenyl)-N,2-dimethyl-1-oxo-12-dihydroisoquinoline-6-carboxamide] reads 7.00 to 8.00; that for `COc1cc(-c2cn(C)c(=O)c3cc(-c4nc5ccncc5[nH]4)ccc23)cc(OC)c1CN(C)C` [Compound B64, 4-[4-[(dimethylamino)methyl]-3,5-dimethoxyphenyl]-7-[1H-imidazo[4,5-c]pyridin-2-yl]-2-methylisoquinolin-1-one], 7.00 to 8.00.
Same read-out and setting: the result for `COc1cc(-c2cn(C)c(=O)c3ccc(-c4nc5cnccc5[nH]4)cc23)cc(OC)c1CN(C)C` [Compound B65, 4-(4-((dimethylamino)methyl)-3,5-dimethoxyphenyl)-6-(1H-imidazo[4,5-c]pyridin-2-yl)-2-methylisoquinolin-1(2H)-one] reads 7.00 to 8.00; that for `COc1c(CN(C)C)ccc(-c2cn(C)c(=O)c3cnccc23)c1F` [Compound B66, 4-(4-((dimethylamino)methyl)-2-fluoro-3-methoxyphenyl)-2-methyl-2,7-naphthyridin-1(2H)-one], 6.00 to 7.00; that for `COc1cc(-c2cn(C)c(=O)c3cnccc23)cc(F)c1CN(C)C` [Compound B67, 4-(4-((dimethylamino)methyl)-3-fluoro-5-methoxyphenyl)-2-methyl-2,7-naphthyridin-1(2H)-one], 7.00 to 8.00.
Same read-out and setting: the result for `COc1cc(/C=C/c2c(C)noc2C)cc(OC)c1CN(C)C` [Compound B68] reads under 6.00.
`COc1cc(-c2cn(C)c(=O)c3cnccc23)cc(OC)c1CN(C)CCN(C)CCOCCOc1cccc2c1C(=O)N(C1CCC(=O)NC1=O)C2=O` (stereo not drawn) [Compound D1, 4-[2-(2-[[2-([[2,6-dimethoxy-4-(2-methyl-1-oxo-2,7-naphthyridin-4-yl)phenyl]methyl](methyl)amino)ethyl](methyl)amino]ethoxy)ethoxy]-2-(2,6-dioxopiperidin-3-yl)isoindole-1,3-dione; formic acid] had a pIC50 on BRD9 bromodomain of 7.00 to 8.00. Also, the DC50 in assay [1] lay within 100 to 1000 nM.
In the same order, the values of `COc1cc(-c2cn(C)c(=O)c3cnccc23)cc(OC)c1CN(C)CC(=O)NCCCCCCCCNc1cccc2c1C(=O)N(C1CCC(=O)NC1=O)C2=O` (stereo not drawn) [Compound D2, 2-([[2,6-dimethoxy-4-(2-methyl-1-oxo-1,2-dihydro-2,7-naphthyridin-4-yl)phenyl]methyl](methyl)amino)-N-(8-[[2-(2,6-dioxopiperidin-3-yl)-1,3-dioxo-2,3-dihydro-1H-isoindol-4-yl]amino]octyl)acetamide formic acid] are 7.00 to 8.00 and under 10 nM.
The matching figures for `COc1cc(-c2cn(C)c(=O)c3cnccc23)cc(OC)c1CN(C)CC(=O)NCCCCCNc1cccc2c1C(=O)N(C1CCC(=O)NC1=O)C2=O` (stereo not drawn) [Compound D3, 2-([[2,6-dimethoxy-4-(2-methyl-1-oxo-1,2-dihydro-2,7-naphthyridin-4-yl)phenyl]methyl](methyl)amino)-N-(5-[[2-(2,6-dioxopiperidin-3-yl)-1,3-dioxo-2,3-dihydro-1H-isoindol-4-yl]amino]pentyl)acetamide formic acid]: 7.00 to 8.00 and 10 to 100 nM.
In the case of `COc1cc(-c2cn(C)c(=O)c3cnccc23)cc(OC)c1CN(C)C(=O)CCCCCOc1cccc2c1C(=O)N(C1CCC(=O)NC1=O)C2=O` (stereo not drawn) [Compound D4, N-[[2,6-dimethoxy-4-(2-methyl-1-oxo-1,2-dihydro-2,7-naphthyridin-4-yl)phenyl]methyl]-6-[[2-(2,6-dioxopiperidin-3-yl)-1,3-dioxo-2,3-dihydro-1H-isoindol-4-yl]oxy]-N-methylhexanamide], in assay [1], the DC50 was under 10 nM.
Take `COc1cc(-c2cn(C)c(=O)c3cnccc23)cc(OC)c1CN(C)CC(=O)NCCCCCCCCNC(=O)COc1cccc2c1C(=O)N(C1CCC(=O)NC1=O)C2=O` (stereo not drawn) [Compound D5, N-[8-[2-([[2,6-dimethoxy-4-(2-methyl-1-oxo-1,2-dihydro-2,7-naphthyridin-4-yl)phenyl]methyl](methyl)amino)acetamido]octyl]-2-[[2-(2,6-dioxopiperidin-3-yl)-1,3-dioxo-2,3-dihydro-1H-isoindol-4-yl]oxy]acetamide]: the pIC50 at BRD9 bromodomain is over 8.00. Besides, in assay [1], the DC50 is under 10 nM.
The matching figures for `COc1cc(OCC(=O)NCCCCCCCCNc2cccc3c2C(=O)N(C2CCC(=O)NC2=O)C3=O)cc(-c2cn(C)c(=O)c3cnccc23)c1` (stereo not drawn) [Compound D6, N-(8-((2-(2,6-dioxopiperidin-3-yl)-1,3-dioxoisoindolin-4-yl)amino)octyl)-2-(3-methoxy-5-(2-methyl-1-oxo-1,2-dihydro-2,7-naphthyridin-4-yl)phenoxy)acetamide]: 7.00 to 8.00 and under 10 nM.
Turning to `COc1cc(-c2cn(C)c(=O)c3cnccc23)cc(OC)c1CN(C)CC(=O)N(C)CCCCCNc1cccc2c1C(=O)N(C1CCC(=O)NC1=O)C2=O` (stereo not drawn) [Compound D7, 2-([[2,6-dimethoxy-4-(2-methyl-1-oxo-1,2-dihydro-2,7-naphthyridin-4-yl)phenyl]methyl](methyl)amino)-N-(5-[[2-(2,6-dioxopiperidin-3-yl)-1,3-dioxo-2,3-dihydro-1H-isoindol-4-yl]amino]pentyl)-N-methylacetamide formic acid], the pIC50 at BRD9 bromodomain is 7.00 to 8.00. Besides, the DC50 in assay [1] is 10 to 100 nM.
Turning to `COc1cc(-c2cn(C)c(=O)c3cnccc23)cc(OC)c1CN(C)CCc1cccc2c1C(=O)N(C1CCC(=O)NC1=O)C2=O` (stereo not drawn) [Compound D17, 4-[2-([[2,6-dimethoxy-4-(2-methyl-1-oxo-2,7-naphthyridin-4-yl)phenyl]methyl](methyl)amino)ethyl]-2-(2,6-dioxopiperidin-3-yl)isoindole-1,3-dione], the DC50 in assay [1] was over 1000 nM.
